One series concerns the target T1, Cytochrome P450 26A1 (Homo sapiens, UniProt O43174).
T1 sequence (O43174 whole entry): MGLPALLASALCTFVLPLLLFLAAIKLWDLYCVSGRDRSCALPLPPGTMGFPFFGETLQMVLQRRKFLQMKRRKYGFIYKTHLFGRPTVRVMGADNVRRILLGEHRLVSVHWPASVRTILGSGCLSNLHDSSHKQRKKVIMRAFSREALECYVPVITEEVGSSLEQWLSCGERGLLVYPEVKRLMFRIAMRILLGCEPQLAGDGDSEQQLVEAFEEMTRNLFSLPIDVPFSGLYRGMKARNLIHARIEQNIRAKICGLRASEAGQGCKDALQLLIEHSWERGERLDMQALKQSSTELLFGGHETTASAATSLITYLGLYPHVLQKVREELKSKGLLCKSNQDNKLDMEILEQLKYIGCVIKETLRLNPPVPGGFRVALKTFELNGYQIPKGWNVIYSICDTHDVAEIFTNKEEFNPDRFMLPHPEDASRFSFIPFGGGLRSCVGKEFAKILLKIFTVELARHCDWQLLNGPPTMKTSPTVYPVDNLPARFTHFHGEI
As to the kind of experiment: (§1) Cell-Based Inhibitor Assay: CYP26A1 or CYP26B1 stably transfected HeLa cells were maintained in Minimum Essential Medium (MEM) containing 10% fetal bovine serum (FBS) and 100 μg/mL hygromycin. Exponentially growing cells were harvested by incubation in trypsin. Cells were then collected and re-plated in 48-well culture plates at 5×10^5 cells in 0.2 mL of culture medium containing 0.05 μCi [3H]-RA in the presence or absence of increasing concentrations of a test compound. The test compounds were diluted in dimethyl sulfoxide (DMSO) and then added in duplicate to wells at 0.01, 0.1, 1, 10 and 100 μM final concentration. […] Cells were incubated for 3 hours at 37° C. Retinoids were then extracted using the procedure of Bligh, et al., (1959), Canadian Journal of Biochemistry 37, 911-917, which was modified by using dichloromethane instead of chloroform. Each sample's water soluble radioactivity level was quantified using a β-scintillation counter (using Ecolume scintillation fluid, available from MP Biomedicals of Solon, Ohio, USA).

The target in the next series is T2, Cytochrome P450 26B1 (Homo sapiens, UniProt Q9NR63).
T2 sequence (Q9NR63 whole entry): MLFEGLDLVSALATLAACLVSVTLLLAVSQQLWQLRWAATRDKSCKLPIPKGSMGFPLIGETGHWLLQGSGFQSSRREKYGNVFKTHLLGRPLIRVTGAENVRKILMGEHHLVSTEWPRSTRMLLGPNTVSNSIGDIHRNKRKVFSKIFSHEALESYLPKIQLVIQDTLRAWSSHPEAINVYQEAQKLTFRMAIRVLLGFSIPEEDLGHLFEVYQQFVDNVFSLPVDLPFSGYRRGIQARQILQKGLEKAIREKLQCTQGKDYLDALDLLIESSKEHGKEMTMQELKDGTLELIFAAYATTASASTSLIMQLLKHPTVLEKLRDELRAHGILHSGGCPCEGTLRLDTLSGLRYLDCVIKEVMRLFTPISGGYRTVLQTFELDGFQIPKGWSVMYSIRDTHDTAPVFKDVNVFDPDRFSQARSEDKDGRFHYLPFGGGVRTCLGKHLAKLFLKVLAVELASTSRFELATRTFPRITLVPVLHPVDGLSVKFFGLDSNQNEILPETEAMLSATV
The description is as §1.

In general, IC50 refers to the concentration needed to halve the response being measured. For `Cc1cc2c(cc1S(=O)(=O)Nc1ccc(CC(=O)O)cc1)C(C)(C)CCC2(C)C`, the IC50 was 0.47 µM at Cytochrome P450 26A1 and more than 1000 µM at Cytochrome P450 26B1.

Take `Cc1ccc(NS(=O)(=O)c2cc(C)c3c(c2)C(C)(C)CC(C)(C)O3)cc1`: the IC50 on Cytochrome P450 26A1 was 1.9 µM; at Cytochrome P450 26B1, 21.8 µM.
